Reference: US6150361A, “Triazineone compounds for treating diseases due to sarcosystis, neospora and toxoplasma” (Bayer Corporation, priority 1998, dated 2000)
Values joined by “and” are separate entries in the source; they are usually repeats but may differ in a detail not shown here. Equal entries are not always repeated. “Also recorded” adds a separate entry of the source.

Columns and labels:
Sarcocystis falcatula = assay: Microtiter Monolayer Disruption Assay (MMDA), Sarcocystis falcatula; type: cell-based, Sarcocystis falcatula strain SF1; details: BT cells
Method: In order to determine the scope of protection provided by Ponazuril, in vitro testing was conducted. The following strains of parasites were evaluated for their sensitivity to this compound: Strain SN3 of Sarcocystis neurona; strain SF1 of Sarcocystis falcatula; strain RH of Toxoplasma gondii; and the NC-1 strain of Neospora caninum. Ponazuril was tested at 2 concentrations (1 μg/mL and 10 μg/mL).
(§1) Bovine turbinate (BT) cells were used for all in vitro studies. Cells were grown to confluency in 25 cm^2 flasks in RMPI 1640 media supplemented with 10% v/v fetal bovine serum (FBS), 100 Units penicillin (G/mL), […] streptomycin/mL and 5×10^-2 mM 2-mercpatoethanol. After cell confluence was obtained, cells were maintained in the same media with reduced FBS (2% v/v). Cell cultures were incubated at 37 C. in a humidified atmosphere containing 5% carbon dioxide and 95% air.
(§2) For growth of parasites, BT cell monolayers were infected with parasites and examined with an inverted microscope for the development of lesions (cytopathic effect, "CPE") or the presence of many extracellular merozoites. Once lesions were observed, or many extracellular parasites were present, the monolayer was scraped with the tip of a 5 mL pipette and 1 to 3 drops of the merozoite-containing fluid was transferred to two flasks of fresh BT cells. Merozoites of S. neurona and S. falcatula were passaged in this manner every 5 to 10 days while the tachyzoites of T. gondii and N. caninum were passaged every 3 to 4 days.
The assay used to determine the effectiveness of Ponazuril was the Microtiter Monolayer Disruption Assay (MMDA). This assay was used to determine if the parasites or compound were toxic for BT cells. Flat bottomed 96-well microtiter plates were inoculated with BT cells and the resulting monolayers were used to determine the effects of Toltrazuril and Ponazuril on merozoite production as measured by CPE (plaque formation). Monolayers were inoculated with parasites (S. neurona or S. falcatula at a count of 50,000/well, T. gondii at a level of 10,000/well, and N. caninum at 20,000/well. All wells were inoculated with the test compound 2 hours after infection. Untreated and […] monolayer wells served as parasite controls and uninfected agent treated BT cells served as toxicity controls. Each treatment was examined in replicates of 6. Each well was visually monitored daily and the assay was stopped when 90-100% of the untreated merozoite infected cells had lysed (90-100% CPE). All wells of the plates were rinsed in Phosphate Buffered Saline (PBS) and fixed in 100% methanol for 5 minutes after which they were stained in crystal violet solution. […]

Neospora caninum NC-1 = assay: Microtiter Monolayer Disruption Assay (MMDA), Neospora caninum; type: cell-based, Neospora caninum strain NC-1; details: BT cells
Method: (§3) In order to determine the scope of protection provided by Ponazuril, in vitro testing was conducted. The following strains of parasites were evaluated for their sensitivity to this compound: Strain SN3 of Sarcocystis neurona; strain SF1 of Sarcocystis falcatula; strain RH of Toxoplasma gondii; and the NC-1 strain of Neospora caninum. […]
as §1, §2
(§4) The assay used to determine the effectiveness of Ponazuril was the Microtiter Monolayer Disruption Assay (MMDA). This assay was used to determine if the parasites or compound were toxic for BT cells. Flat bottomed 96-well microtiter plates were inoculated with BT cells and the resulting monolayers were used to determine the effects of Toltrazuril and Ponazuril on merozoite production as measured by CPE (plaque formation). […]

[1] = system: Bovine turbinate (BT) cells; type: cell-based; details: uninfected BT cells
Method: as §1, §4

Toxoplasma gondii = assay: Microtiter Monolayer Disruption Assay (MMDA), Toxoplasma gondii; type: cell-based, Toxoplasma gondii strain RH; details: BT cells
Method: as §3, §1, §2, §4

[2] = Passing of the blood-brain barrier in horses; type: in vivo; details: after oral Toltrazuril daily for 10 days
Method: (§5) This experiment was conducted in order to determine whether triazineones such as Toltrazuril can pass the blood-brain barrier. Normal horses were divided into three groups of three horses per group. Group 1 horses received Toltrazuril administered orally as a 5% suspension at a dose level of 2.5 mg/Kg. Group 2 horses received Toltrazuril administered orally as a 5% suspension at a dose level of 5.0 mg/Kg. Group 3 horses received Toltrazuril administered orally as a 5% suspension at a dose level of 7.5 mg/Kg. The dosing was repeated daily for 10 days. Blood samples were drawn at 48, 96 and 240 hours and the concentration of Toltrazuril, Toltrazuril sulfoxide and Ponazuril in the serum was measured. Ten days after the start of the treatment (Day 10), a sample of cerebral spinal fluid was removed from each horse and the concentrations of Toltrazuril, Toltrazuril Sulfoxide and Ponazuril were again measured in these samples. The concentrations of Toltrazuril, Toltrazuril Sulfoxide and Ponazuril in the serum and cerebral spinal fluid are reported in TABLES 5a and 5b.

[3] = Drug levels in serum after repeated doses of Toltrazuril in horses; type: in vivo; design: unit not given here; details: for AVG drug level in serum, 48 Hrs / AVG drug level in serum, 96 Hrs / AVG drug level in serum, 240 Hrs: group average; for Drug level in serum, 48 Hrs / Drug level in serum, 96 Hrs / Drug level in serum, 240 Hrs: individual horse
Method: as §5

[4] = Drug levels in cerebral spinal fluid after repeated doses of Toltrazuril in horses; type: in vivo; design: Drug level in Cerebral Spinal Fluid, Day 10 / AVG drug level in Cerebral Spinal Fluid, Day 10: unit not given here; details: for AVG drug level in Cerebral Spinal Fluid, Day 10: group average; for Drug level in Cerebral Spinal Fluid, Day 10: individual horse
Method: as §5

[5] = 0.1 μg/mL, read-out: Percent Inhibition of Cell Destruction, 0.1 μg/mL
[6] = 0.001 μg/mL, read-out: Percent Inhibition of Cell Destruction, 0.001 μg/mL
[7] = 1.0 μg/mL, read-out: Percent Inhibition of Cell Destruction, 1.0 μg/mL
[8] = Toltrazuril 2.5 mg/Kg oral daily for 10 days
[9] = Toltrazuril 5.0 mg/Kg oral daily for 10 days
[10] = Toltrazuril 7.5 mg/Kg oral daily for 10 days

Q: Which inhibition at 0.1 µg/mL (Sarcocystis falcatula; [5]) does the source give for `Cc1cc(-n2c(=O)[nH]c(=O)n(C)c2=O)ccc1Oc1ccc(S(=O)(=O)C(F)(F)F)cc1` [Ponazuril] here?
A: The inhibition at 0.1 µg/mL was 61%.

Q: And the inhibition at 1 µg/mL (Sarcocystis falcatula; 1 μg/mL, read-out: Percent Inhibition of Cell Destruction, 1 μg/mL)?
A: The inhibition at 1 µg/mL was 100%.

Q: What about the inhibition at 5 µg/mL (Sarcocystis falcatula; 5.0 μg/mL, read-out: Percent Inhibition of Cell Destruction, 5.0 μg/mL) of the same compound?
A: The inhibition at 5 µg/mL was 100%.

Q: And the inhibition at 10 µg/mL (Sarcocystis falcatula; 10 μg/mL, read-out: Percent Inhibition of Cell Destruction, 10 μg/mL)?
A: Its inhibition at 10 µg/mL is 100%.

Q: And the inhibition at 0.001 µg/mL (Neospora caninum NC-1; [6])?
A: The inhibition at 0.001 µg/mL was 3%.

Q: What about the inhibition at 0.01 µg/mL (Neospora caninum NC-1; 0.01 μg/mL, read-out: Percent Inhibition of Cell Destruction, 0.01 μg/mL) of the same compound?
A: Its inhibition at 0.01 µg/mL is 13%.

Q: And the inhibition at 1 µg/mL (Neospora caninum NC-1; [7])?
A: The inhibition at 1 µg/mL was 100%.

Q: What about the “toxicity to the BT cells” value [1] of the same compound?
A: The value was “not toxic”.

Q: And the inhibition at 0.001 µg/mL (Toxoplasma gondii; [6])?
A: Its inhibition at 0.001 µg/mL is 11%.

Q: What about the inhibition at 0.1 µg/mL (Toxoplasma gondii; [5]) of the same compound?
A: The inhibition at 0.1 µg/mL was 100%.

Q: And the inhibition at 1 µg/mL (Toxoplasma gondii; [7])?
A: Its inhibition at 1 µg/mL is 100%.

Q: What about the “crossing of the blood-brain barrier” value [2] of the same compound?
A: The value was “effectively cross the blood-brain barrier; also recorded: crosses this barrier more effectively than does Toltrazuril”.

Q: And the “AVG drug level in serum, 48 Hrs” value [3, 8]?
A: Its value is 1.41.

Q: And the “AVG drug level in serum, 96 Hrs” value [3, 8]?
A: Its value is 1.76.

Q: And the “AVG drug level in serum, 240 Hrs” value [3, 8]?
A: Its value is 3.00.

Q: And the “Drug level in serum, 48 Hrs” value [3, 8]?
A: The value was 0.29 and 0.24 and 3.70.

Q: And the “Drug level in serum, 96 Hrs” value [3, 8]?
A: The value was 0.99 and 1.15 and 3.13.

Q: What about the “Drug level in serum, 240 Hrs” value [3, 8] of the same compound?
A: Its value is 2.61 and 2.36 and 4.04.

Q: What about the “AVG drug level in serum, 48 Hrs” value [3, 9] of the same compound?
A: Its value is 0.53.

Q: What about the “AVG drug level in serum, 96 Hrs” value [3, 9] of the same compound?
A: Its value is 2.26.

Q: And the “AVG drug level in serum, 240 Hrs” value [3, 9]?
A: Its value is 5.02.

Q: What about the “Drug level in serum, 48 Hrs” value [3, 9] of the same compound?
A: The value was 0.48 and 0.63.

Q: And the “Drug level in serum, 96 Hrs” value [3, 9]?
A: Its value is 2.09 and 2.03 and 2.66.

Q: What about the “Drug level in serum, 240 Hrs” value [3, 9] of the same compound?
A: Its value is 5.44 and 2.03 and 5.61.

Q: And the “AVG drug level in serum, 48 Hrs” value [3, 10]?
A: Its value is 2.55.

Q: And the “AVG drug level in serum, 96 Hrs” value [3, 10]?
A: The value was 2.89.

Q: And the “AVG drug level in serum, 240 Hrs” value [3, 10]?
A: Its value is 6.58.

Q: And the “Drug level in serum, 48 Hrs” value [3, 10]?
A: Its value is 6.35 and 0.78 and 0.52.

Q: What about the “Drug level in serum, 96 Hrs” value [3, 10] of the same compound?
A: Its value is 2.69 and 2.89 and 3.09.

Q: And the “Drug level in serum, 240 Hrs” value [3, 10]?
A: The value was 6.31 and 6.37 and 7.06.

Q: And the “AVG drug level in Cerebral Spinal Fluid, Day 10” value (shortened to “AVG drug level … Day 10”) [4, 8]?
A: The value was 0.09.

Q: And the “Drug level in Cerebral Spinal Fluid, Day 10” value [4, 8]?
A: Its value is 0.09 and 0.07 and 0.11.

Q: And the “AVG drug level … Day 10” value [4, 9]?
A: The value was 0.16.

Q: What about the “Drug level in Cerebral Spinal Fluid, Day 10” value [4, 9] of the same compound?
A: Its value is 0.12 and 0.14 and 0.21.

Q: What about the “AVG drug level … Day 10” value [4, 10] of the same compound?
A: The value was 0.22.

Q: And the “Drug level in Cerebral Spinal Fluid, Day 10” value [4, 10]?
A: Its value is 0.23 and 0.17 and 0.27.

Q: What about the “concentration in the cerebral spinal fluid compared with Toltrazuril” value ([4]; after treatment of horses with Toltrazuril) of the same compound?
A: The value was “essentially equivalent to the concentration of Toltrazuril itself”.
